Assay results taken from patent US10456441B2, “Augmenting the immune response by promoting cell death of immune cells” (The University of Vermont and State Agricultural College, priority 2014, dated 2019).
Where a SMILES comes first, the peptide text is derived from it. The star is where a group is joined. Cbz = O=C(OCc1ccccc1)*; CH2F = FC*

Columns and labels:
BMDC = assay: Cell death of BMDC by TUNEL assay; format: cell-based, mice
Protocol: The preparation of bone marrow-derived dendritic cells (BMDC) was done according to the method of Lutz et al. (26) using GM-CSF ([…] PeproTech, Rocky Hill N.J.) or GM-CSF plus IL-4 (10 μg/ml, PeproTech). Cells were used on day 7.
(§1) Cell death was examined by terminal deoxynucleotidyl transferase dUTP nick end labeling (TUNEL). Briefly, cells were stained for expression of cell surface molecules, and then fixed with 1% methanol-free formaldehyde followed by 70% ethanol. After washing, the TUNEL reaction was performed by incubating cells in 50 μl of reaction mix containing 10 units of terminal deoxribosyl transferase (TdT), 2.5 mM cobalt chloride in 1× TdT buffer, and 0.2 pmol/μl of FITC-dUTP (Roche, Indianapolis, Ind.) at 37° C. for 1 hour. The cells were washed twice and fixed in 1% methanol-free formaldehyde. Murine thymocytes were included as a positive control for apoptotic cells. Flow cytometry was performed on an LSRII (BD Biosciences, San Jose, Calif.) calibrated with compensation beads (BD Biosciences). Analysis was performed using FlowJo software (Tree Star, Inc., Ashland, Oreg.).

human DC = assay: Cell death of human DC from peripheral blood monocytes; format: cell-based; conditions: human DC cultured with GM-CSF, zVAD at doses very similar to murine DC, 20 h
Protocol: as §1, with “Human monocytes were obtained as […] cells by magnetic bead purification (Miltenyi Biotech, Auburn, Calif.) from peripheral blood of healthy volunteers. Myeloid DC were prepared by culture of monocytes in AIM V media plus 10% fetal calf serum (HyClone) with 800 U/ml of granulocyte-macrophage colony-stimulating factor (GM-CSF), (BioLegend, San Diego, Calif.) without or with 500 U/ml IL-4 (BioLegend). Cell” for “Cell”

[1] = animal models; cited from earlier work
[2] = system: human synovial Vδ1 clone Bb15; assay: Human synovial γδ T cell clone Bb15 cultured with human DC and B. burgdorferi; format: cell-based; conditions: Borrelia plus zVAD-treated (50 μM) DC cultured with GM-CSF alone
Protocol: γδ T cell clones were derived from synovial fluid T cells stimulated with B. burgdorferi sonicate (10 μg/ml) and then cloned at limiting dilution as previously described (8). All clones are of the Vδ1 subset by antibody staining and DNA sequencing (8). Clones were restimulated every 10-14 days in the presence of irradiated peripheral blood lymphocytes (3×10^5/well), human recombinant IL-2 (10 U/ml), and 10 μg/ml of B. burgdorferi.
Human monocytes were obtained as […] cells by magnetic bead purification (Miltenyi Biotech, Auburn, Calif.) from peripheral blood of healthy volunteers. Myeloid DC were prepared by culture of monocytes in AIM V media plus 10% fetal calf serum (HyClone) with 800 U/ml of granulocyte-macrophage colony-stimulating factor (GM-CSF), (BioLegend, San Diego, Calif.) without or with 500 U/ml IL-4 (BioLegend).

γδ T cells = assay: Cell death of γδ T cells by TUNEL assay; format: cell-based, mice; conditions: 50 μM zVAD
Protocol: Spleens were isolated and disrupted through nylon mesh in RPMI 1640 with 25 mm Hepes (MediaTech, Herndon, Va.) containing 5% (v/v) bovine calf serum (HyClone, Logan, Utah). Erythrocyte lysis of splenocytes was performed using Geys solution. γδ T lymphocytes were enriched by negative selection using a magnetic bead system (Qiagen, Valencia, Calif.) in which splenocytes were incubated with a cocktail of rat monoclonal antibodies to mouse CD4 (clone GK 1.5), CD8 (clone Tib105), class II (clone M5/114/15/2), CD11b (clone M1/70), and B220 (CD45R) (clone RA3-6B2). Cells were washed three times and then rocked with goat anti-rat conjugated magnetic beads at a 10:1 ratio of beads to cell at 4° C. for 45 min. Magnetic depletion was used to remove bead-bound cells. Finally, enriched γδ T cells were resuspended in complete medium (RPMI 1640 (Mediatech, Inc., Herndon, Va., USA), 2.5 mg/ml glucose (Sigma, St. Louis, Mo.), […] folate (Invitrogen, Carlsbad, Calif.), 110 μg/ml pyruvate (Invitrogen), 5×10^−5 M 2-mercaptoethanol (Sigma), 292.3 μg/ml glutamine (Invitrogen), 100 units/ml penicillin-streptomycin (Invitrogen), and 5% bovine calf serum). […] Cells were counted daily and supplied with fresh media containing 50 units/ml IL-2. […]

Which results are given for `CC(C)[C@H](NC(=O)OCc1ccccc1)C(=O)N[C@@H](C)C(=O)N[C@@H](CC(=O)O)C(=O)CF` [zVAD, N-benzyloxycarbonyl-Val-Ala-Asp-fluoromethyl ketone] (Cbz-Val-Ala-Asp-CH2F)?
dead BMDC (BMDC; 50 μM zVAD, BMDC grown in GM-CSF, within 18 hours, dose-dependent): ~80%; cell death of BMDC (BMDC; GM-CSF+IL-4-cultured BMDC with zVAD, compared to BMDC cultured with only GM-CSF): greatly reduced cell death; death of human DC (human DC): highly susceptible to death; reducing cell death after ischemia in multiple tissues [1]: highly effective; IFN-γ production by clone Bb15 [2]: increased IFN-γ production; cell death of γδ T cells (γδ T cells): no increase in cell death
